In series [1] the test system is NO release of LPS-induced microglial N9 cells. As to the kind of experiment: Inhibition of NO release in LPS-induced N9 cells (Griess). It is filed as cell-based, murine. The following applies: Mus musculus, 1 μg/mL LPS for 48 h, NO level in medium. Put shortly:
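Log-phase N9 microglia were grown adherent for 24 h, switched to serum-free medium, then given test compounds under LPS stimulation. Nitrite in supernatant was quantified by Griess reaction at 540 nm; MTT-IC20 was determined to exclude cytotoxic effects.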

Series [2] has as its system IL-6 release of LPS-induced N9 cells. As to the kind of experiment: IL-6 release of LPS-induced N9 cells (cytokine kit). It is filed as cell-based, murine. The following applies: compound 1 μM, LPS 1 μg/mL, 48 h; for inhibition at 1 µM: Mus musculus. Here is the method: (§1) N9 cells, which were in the logarithmic phase, were incubated for 24 h by adherent culture. Subsequently, the medium was changed to new one without serum. The cells were treated with different concentration of tested compounds. After specific time in the LPS condition, the supernatants were collected and analyzed.
(§2) The secreted level of TNF-α and IL-6 was measured using mouse Th1/Th2/Th17 Cytokine Kit, purchased from BD Pharningen. The data was analyzed by FCAP Array v3.0. IL-2, IL-4, IL-10, IL-17A, and IFN-γ were not detected in the experiment.

For a further series, the system named is HCT-116 cells. The series can be described thus: MTT cytotoxicity in HCT-116 cells. It counts as cell-based. The following applies: Homo sapiens. Put shortly: (§3)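 Standard MTT assay: cells seeded 24 h, treated with compounds at 6.25–100 μM in triplicate, then grown for 96 h total. Run under normoxia (air throughout) or hypoxia (95% N2 for 24 h, then 72 h normoxia). MTT added for 4 h, formazan dissolved in DMSO, absorbance read at 570 nm.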

The test system of the next series is HT-29 cells. As to the kind of experiment: MTT cytotoxicity in HT-29 cells. It is filed as cell-based, Human. The settings on record: Homo sapiens, MTT.
Series [3] in a line: MTT cytotoxicity in N9 cells. It is filed as cell-based, murine. The following applies: mouse, N9 microglial cells, cytotoxic activity. Put shortly:
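N9 microglial cells seeded at 1.5–3 × 10^4 cells/mL, grown 24 h, then exposed to compounds at 6.25–100 μM in triplicate for 96 h. Viability by MTT (4 h), formazan dissolved in DMSO, absorbance at 570 nm; MTT-IC20 derived.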

For series [4], the system named is TNF-α release of LPS-induced N9 cells. As to the kind of experiment: TNF-α release of LPS-induced N9 cells (cytokine kit). It is filed as cell-based, murine. The settings on record: compound 1 μM, LPS 1 μg/mL, 48 h; for inhibition at 1 µM: Mus musculus. How it is done: as §1, §2
The test system of a further series is MDA-MB-231 cells. The series can be described thus: MTT cytotoxicity in MDA-MB-231 cells. It is filed as cell-based. The following applies: Homo sapiens. The method in brief: as §3
The next series concerns A549 cells. As to the kind of experiment: MTT cytotoxicity in A549 cells. It counts as cell-based. The following applies: Homo sapiens. Put shortly:
as §3

Series [5] is described as follows: NO capture analysis with sodium nitroprusside (Griess). The settings on record: 0.01-10 μM compound, 0.5 mM SNP solution, 1 h, room temperature. How it is done:
Sodium nitroprusside (SNP) is a NO donor. In this experiment, the reason of the DCH reducing NO level was preliminary explored. […] That means the main reason of the NO level reduction is due to species-specific effect.
SNP was dissolved in PBS to prepare the 100 mM stock solution. In this experiment, SNP solution of […] was added to 975 μL PBS solution which included different concentration of tested compounds. After 60 min under r.t. condition, the concentration of NO2^− was tested using Griess assay.
6l (0.01 μM, 0.1 μM, 1 μM, and 10 μM) or 5n (0.01 μM, 0.1 μM, 1 μM, and 10 μM) was added to a concentration of 0.5 mM SNP solution. […] Data were shown as mean ± SD. *** p < 0.001 compared with control group.
Background: Nitrite, measured by Griess reagent, commonly stands in for NO production.

Where [6] appears, read: HCT-116, hypoxia 24 h then normoxia 72 h, read-out: IC50 HCT-116 Hypoxia.
[7] abbreviates: HCT-116, normoxia 96 h, read-out: IC50 HCT-116 Normoxia.
Setting [8] is: HT-29, hypoxia 24 h then normoxia 72 h, read-out: IC50 HT-29 Hypoxia.
The mark [9] stands for this setting: HT-29, normoxia 96 h, read-out: IC50 HT-29 Normoxia.
Setting [10] is: MDA-MB-231, hypoxia 24 h then normoxia 72 h, read-out: IC50 MDA-MB-231 Hypoxia.
[11] abbreviates: MDA-MB-231, normoxia 96 h, read-out: IC50 MDA-MB-231 Normoxia.
The mark [12] stands for this setting: A549, hypoxia 24 h then normoxia 72 h, read-out: IC50 A549 Hypoxia.
The mark [13] stands for this setting: A549, normoxia 96 h, read-out: IC50 A549 Normoxia.

Like-named read-outs stand apart in the source and are kept apart here. Bounds are passed on as bounds.

The term IC50 denotes the point on the concentration scale where inhibition reaches its midpoint. What is called inhibition is the percentage by which the read-out fell short of the control. A lower inhibition goes with a response near the control. Broadly, the IC20 is the point of the concentration-response curve where the effect stands at 20%. For orientation: melting point means the temperature of the solid-liquid transition.

In the case of `C[C@H]1[C@@H](OCCc2cn(Cc3cc4cc(Br)ccc4oc3=O)nn2)O[C@@H]2O[C@@]3(C)CC[C@H]4[C@H](C)CC[C@@H]1[C@@]24OO3` [2b, 6-bromo-3-((4-(2-((10S)-dihydroartemisininoxy)ethyl)-1H-1,2,3-triazol-1-yl)-methyl)-2H-1-chromen-2-one], the melting point lay within 138 to 140 °C. Moreover, 0.64 µM corresponded to half-maximal inhibition in series [1] (IC50). In series [2], this compound had an inhibition at 1 µM of 30.9% and an IL-6 of 797.52 ± 140.74 pg/mL. Further, the IC50 with HCT-116 cells (setting [6]) is greater than 100 µM. For the same compound, the IC50 in the series on HCT-116 cells (setting [7]) was 56 µM. In the series with HT-29 cells (setting [8]), the IC50 stood at 12.1 µM. Besides, the IC50 in the series with HT-29 cells (setting [9]) came out at 9.75 µM. The IC20 in [3] was greater than 10 µM. In addition, in series [4], the inhibition at 1 µM amounted to 27.2% and the TNF-α is listed as 3285.99 ± 1062.40 pg/mL. In addition, in the series on MDA-MB-231 cells (setting [10]), the IC50 is 36.9 µM. The IC50 with MDA-MB-231 cells (setting [11]) was found to be 37.7 µM. In the series with A549 cells (setting [12]), the IC50 stood at 60.2 µM. Further, the IC50 in the series with A549 cells (setting [13]) was greater than 100 µM.
The compound `C[C@H]1[C@@H](OCCc2cn(Cc3cc4cc(Cl)ccc4oc3=O)nn2)O[C@@H]2O[C@@]3(C)CC[C@H]4[C@H](C)CC[C@@H]1[C@@]24OO3` [2c, 6-chloro-3-((4-(2-((10S)-dihydroartemisininoxy)ethyl)-1H-1,2,3-triazol-1-yl)-methyl)-2H-1-chromen-2-one] had a melting point of 138 to 140 °C. The midpoint of inhibition in series [1], the IC50, lay at 2.66 µM. For the same compound, in series [2], the inhibition at 1 µM was determined as 26.4% and the IL-6 came out at 850.24 ± 112.47 pg/mL. Moreover, the IC50 in the series with HCT-116 cells (setting [6]) came out at 64.4 µM. The IC50 in the series with HCT-116 cells (setting [7]) stood at 49.5 µM. Also, the IC50 with HT-29 cells (setting [8]) was 19.6 µM. Also, the IC50 with HT-29 cells (setting [9]) was determined as 17.5 µM. Moreover, the IC20 in [3] is greater than 10 µM. In [4], this compound showed an inhibition at 1 µM of 32.1% and a TNF-α of 3077.03 ± 375.48 pg/mL. Moreover, the IC50 in the series on MDA-MB-231 cells (setting [10]) came out at 32.5 µM. In the series on MDA-MB-231 cells (setting [11]), the IC50 stood at 44 µM. Further, the IC50 with A549 cells (setting [12]) was determined as 66.9 µM. The IC50 with A549 cells (setting [13]) turned out to be 87.2 µM.
In turn, `Cc1cc(C)c2c(OCc3cn(CCCO[C@H]4O[C@@H]5O[C@@]6(C)CC[C@H]7[C@H](C)CC[C@@H]([C@H]4C)[C@@]57OO6)nn3)cc(=O)oc2c1` [6l] returned a melting point of 86 to 88 °C. In series [1], this compound displayed a concentration for half-maximal inhibition (IC50) of 0.52 µM. The IC50 in the series with HCT-116 cells (setting [6]) came out at 27.9 µM. In the series with HCT-116 cells (setting [7]), the IC50 came to 26.9 µM. In addition, the “NO radical scavenging activity” value in series [5] is “had NO radical scavenging activity”. In the series with HT-29 cells (setting [8]), the IC50 is 3.4 µM. In the series on HT-29 cells (setting [9]), the IC50 is 8.41 µM. The IC20 in [3] was greater than 10 µM. Besides, in the series on MDA-MB-231 cells (setting [10]), the IC50 came to 6.85 µM. Further, in the series with MDA-MB-231 cells (setting [11]), the IC50 turned out to be 1.17 µM. Also, the IC50 in the series with A549 cells (setting [12]) came out at 9.78 µM. Further, the IC50 with A549 cells (setting [13]) came out at 6.88 µM.
`Cc1ccc2oc(=O)cc(OCc3cn(CCCO[C@H]4O[C@@H]5O[C@@]6(C)CC[C@H]7[C@H](C)CC[C@@H]([C@H]4C)[C@@]57OO6)nn3)c2c1` [6p] displayed a melting point of 80 to 82 °C. It took 1.42 µM to reach half-maximal inhibition in series [1] (IC50). In series [2], this compound gave an inhibition at 1 µM of 35.2% and an IL-6 of 747.80 ± 125.56 pg/mL. Further, the IC50 with HCT-116 cells (setting [6]) was 38.1 µM. In addition, the IC50 in the series on HCT-116 cells (setting [7]) stood at 35.3 µM. The IC50 in the series on HT-29 cells (setting [8]) turned out to be 12.5 µM. In the series with HT-29 cells (setting [9]), the IC50 worked out at 7.49 µM. Moreover, the IC20 in series [3] was greater than 10 µM. Besides, in series [4], 1 µM produced 23.4% inhibition and the TNF-α was found to be 3451.29 ± 646.50 pg/mL. Moreover, the IC50 in the series on MDA-MB-231 cells (setting [10]) was found to be 10.3 µM. The IC50 in the series with MDA-MB-231 cells (setting [11]) was determined as 22.1 µM. In the series with A549 cells (setting [12]), the IC50 was found to be 18.8 µM. The IC50 in the series with A549 cells (setting [13]) was found to be 18.9 µM.

These data come from PMC6539525, “Design, Synthesis, and Mechanism of Dihydroartemisinin–Coumarin Hybrids as Potential Anti-Neuroinflammatory Agents” (Molecules, 2019).
